One compound from patent US20230398109A1, “USE OF PQQ AND DERIVATIVE THEREOF” (GUANGZHOU HUTONGYOUWU BIOTECHNOLOGY CO., LTD, priority 2021, published 2023) can be followed below.

Holding throughout (type): in vivo, human
In assay [1] the test system is patients with primary dysmenorrhea. The assay can be described thus: Treatment of patients with primary dysmenorrhea, oral PQQ vs placebo, 3 months. The conditions noted are these: for Proportion of people with alleviation in primary dysmenorrhea (self-assessment): 50 people. The source says: Experiment number: 100 people have been diagnosed with primary dysmenorrhea, 50 people in the experimental group and the control group. Experimental method: administering PQQ orally to the patients of experimental group, administering placebo orally to the patients of control group. The duration of the experiment was 3 months, and menstrual pain was asked and recorded.

The test system of assay [2] is patients with secondary dysmenorrhea. Nature of the assay: Treatment of patients with secondary dysmenorrhea, oral PQQ vs placebo, 3 months. The conditions noted are these: for Proportion of people with alleviation in secondary dysmenorrhea: 50 people. The procedure:
Experiment number: 100 peoples have been diagnosed with secondary dysmenorrhea, with 50 peoples in the experimental group and the control group each. Experimental method: administering PQQ orally to the patients of experimental group, administering placebo orally to the patients of control group. The duration of the experiment was 3 months, and menstrual pain and pregnancy were asked and recorded. The dysmenorrhea index is determined based on the VAS scoring standard, which means patients self-evaluate the intensity of pain and the degree of psychologically unpleasant experience according to the degree of pain they feel, including: • 0 points: no pain; • 1-3 points: mild pain; • 4-6 points: moderate pain; • 7-9 points: severe pain; • 10 points: unbearable pain.

The test system of assay [3] is patients with menstrual abnormalities. Nature of the assay: Treatment of patients with abnormal menstruation, oral PQQ vs placebo, 3 months. The conditions noted are these: experimental group. The protocol: Experiment number: 100 peoples diagnosed with menstrual abnormalities, 50 people in the experimental group and the control group each. Experimental method: administering PQQ orally to the patients of experimental group, administering placebo orally to the patients of control group. The duration of the experiment was 3 months, and menstrual conditions (duration of menstrual, consumption and weights of sanitary napkin) were measured and recorded.

Each structure is given as a SMILES string.

As to `O=C(O)c1cc(C(=O)O)c2c(n1)C(=O)C(=O)c1cc(C(=O)O)[nH]c1-2` [PQQ, 4,5-dioxo-1H-pyrrolo[2,3-f]quinoline-2,7,9-tricarboxylic acid], the results for the “Proportion of people with alleviation in primary dysmenorrhea (self-assessment)” value in assay [1] (evaluation time 1 month) and in assay [1] (evaluation time 3 months) were 98% and 100%, respectively. Also, the “dysmenorrhea index alleviated compared to beginning of the experiment” value in assay [1] (experimental group, 3 months) is recorded as 100%. The “average dysmenorrhea index (VAS score) change” value in assay [2] (FIG. 1, during treatment) is “decreased significantly”. In addition, the “Proportion of people with alleviation in secondary dysmenorrhea” value amounted to 82% in assay [2] (evaluation time 1 month) and 100% in assay [2] (evaluation time 3 months). Besides, the “cases that became pregnant” value in assay [2] (experimental group of 50, 3 months) is given as 2 cases. Besides, in assay [2] (experimental group, 3 months), the “dysmenorrhea index alleviated compared to the beginning of the experiment” value is listed as 100%. Besides, the “average monthly menstrual bleeding duration after treatment” value in assay [3] (3 months oral, FIG. 2) is given as “about 1 week”. The “decrease of average amount of menstrual bleeding” value in assay [3] (3 months oral, FIG. 3 (sanitary napkin consumption)) was “more than 30%”. In addition, the “average monthly menstrual bleeding duration at beginning of the experiment” value in assay [3] (baseline, FIG. 2) is listed as “about 2 weeks”.
